System: gastrointestinal tract
Assay: CT of abdomen and pelvis after oral agent: bowel distension, wall visualization, transit to colon
Format: in vivo, human
Method: Institutional review board approval was obtained. These materials were offered to outpatients (ranging from 18 to 89 years of age) in random fashion. In each case, the patient was given literature to explain the project and then asked to sign a consent form. Those who declined participation in the study were given dilute iodinated contrast or water as appropriate for the exam. […] The amount of each material, 1600 cc, and timing, approximately 60 minutes, were standard for the preparation protocol used with dilute iodinated contrast. Although scanning parameters varied slightly, depending on the clinical question, all patients received 5 mm or less slices through the abdomen and pelvis. […] Where given, the intravenous contrast agent was administered from 3-5 cc/sec for 100-150 cc of 300 mg % non-ionic contrast.
Each drink was labeled with a letter A-E to blind the administered substance to the reader. […] Each CT scan was read by consensus by two readers. Each exam was rated for various characteristics. The stomach was rated for distention: 1=well distended; 2=adequate distention; 3=poor distention. The small bowel was rated for two characteristics. The distention was assessed with measurements taken from the left upper quadrant (LUQ), the pelvis, and the right lower quadrant (RLQ) areas. Three measures were taken at each area with the greatest diameters used. The diameters were then averaged. The definition of the bowel wall was also graded using visualization of the wall separate from the luminal contents as well as the ability to appreciate the valvulae conniventes when present (1=excellent, 2=good, 3=fair, 4=poor, 5=non-diagnostic). Finally, an attempt was made to assess whether the ingested liquid was able to reach the colon during the preparation time period (0=no oral contrast in colon, 1=oral contrast in colon).

Compound: O [Water, water]
- LUQ small bowel distention (averaged greatest diameters) (1600 cc oral, approximately 60 minutes, left upper quadrant, group mean): 17.50 mm
- Pelvis small bowel distention (averaged greatest diameters) (1600 cc oral, approximately 60 minutes, pelvis, group mean): 14.79 mm
- RLQ small bowel distention (averaged greatest diameters) (1600 cc oral, approximately 60 minutes, right lower quadrant, group mean): 14.14 mm
- mid to distal / small bowel distention, result in words (FIGS. 2A-2D and study in general): least effective
- Wall (definition of the bowel wall, qualitative evaluation) (mean grade, 1=excellent, 2=good, 3=fair, 4=poor, 5=non-diagnostic): 2.23
- Stomach (distention, qualitative evaluation) (mean grade, 1=well distended, 2=adequate distention, 3=poor distention): 2.13
- Colon (ingested liquid reached the colon during preparation time) (mean, 0=no oral contrast in colon, 1=oral contrast in colon): .020

Source: patent US20050180921A1, “Contrast agents to improve gastrointestinal tract opacification during abdominal and pelvic CT scans” (priority 2004, published 2005)
